Consider 26 compounds from patent publication US9663543B2 (priority 2014, dated 2017).

Structures are written as SMILES. pIC50: −log10 of the molar value. Where only a bound is given, the exact number is not on record here.

The target of this assay is Human factor D (Homo sapiens (Human), UniProt P00746). The format is biochemical.
Human factor D, sequence (P00746 26-253 limits assumed): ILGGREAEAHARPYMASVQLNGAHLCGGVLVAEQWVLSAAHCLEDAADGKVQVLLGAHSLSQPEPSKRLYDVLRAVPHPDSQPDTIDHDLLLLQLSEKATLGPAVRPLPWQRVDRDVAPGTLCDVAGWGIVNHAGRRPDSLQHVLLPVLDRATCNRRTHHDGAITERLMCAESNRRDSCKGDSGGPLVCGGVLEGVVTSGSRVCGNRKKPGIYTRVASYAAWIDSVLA
The pIC50 is the IC50 on a negative log10 scale, so that one unit is a factor of ten. High values mean a small IC50, low ones a large IC50. For the compound `CCOP(=O)(OCC)c1ccc2c(C(C)=O)cn(CC(=O)N3C[C@H](F)C[C@H]3C(=O)NCc3cccc(Cl)c3F)c2c1` [Compound 1, diethyl 3-acetyl-1-(2-((2S,4R)-2-(3-chloro-2-fluorobenzylcarbamoyl)-4-fluoropyrrolidin-1-yl)-2-oxoethyl)-1H-indol-6-ylphosphonate], the negative-log IC50 (pIC50) was > 6.00. As for `CCOP(=O)(O)c1ccc2c(C(C)=O)cn(CC(=O)N3C[C@H](F)C[C@H]3C(=O)NCc3cccc(Cl)c3F)c2c1` [Compound 2, ethyl hydrogen 3-acetyl-1-(2-((2S,4R)-2-(3-chloro-2-fluorobenzylcarbamoyl)-4-fluoropyrrolidin-1-yl)-2-oxoethyl)-1H-indol-6-ylphosphonate], the figure is > 6.00; as for `CC(=O)c1cn(CC(=O)N2C[C@H](F)C[C@H]2C(=O)NCc2cccc(Cl)c2F)c2cc(P(=O)(O)O)ccc12` [Compound 3, 3-acetyl-1-(2-((2S,4R)-2-(3-chloro-2-fluorobenzylcarbamoyl)-4-fluoropyrrolidin-1-yl)-2-oxoethyl)-1H-indol-6-ylphosphonic acid], > 6.00.

As to `CC(=O)c1cn(CC(=O)N2C[C@H](F)C[C@H]2C(=O)NCc2cccc(Cl)c2F)c2cc(P(=O)(OCOC(=O)OC(C)C)OCOC(=O)OC(C)C)ccc12` [Compound 4, ((3-acetyl-1-(2-((2S,4R)-2-(3-chloro-2-fluorobenzylcarbamoyl)-4-fluoropyrrolidin-1-yl)-2-oxoethyl)-1H-indol-6-yl)phosphoryl)bis(oxy)bis (methylene) isopropyl dicarbonate], the pIC50 is > 6.00. `CCOP(=O)(OCOC(=O)OC(C)C)c1ccc2c(C(C)=O)cn(CC(=O)N3C[C@H](F)C[C@H]3C(=O)NCc3cccc(Cl)c3F)c2c1` (stereo partly drawn) [Compound 6, ((3-acetyl-1-(2-((2S,4R)-2-(3-chloro-2-fluorobenzylcarbamoyl)-4-fluoropyrrolidin-1-yl)-2-oxoethyl)-1H-indol-6-yl)(ethoxy)phosphoryloxy) methyl isopropyl carbonate]: the negative-log IC50 (pIC50) was > 6.00.

Turning to `CC(=O)c1cn(CC(=O)N2[C@@H]3CCC[C@@H]3C[C@H]2C(=O)NCc2cccc(Cl)c2F)c2cc(P(=O)(O)O)ccc12` [Compound 7, 3-acetyl-1-(2-((2S,3aR,6aR)-2-(3-chloro-2-fluorobenzylcarbamoyl)hexa-hydrocyclopenta[b]pyrrol-1(2H)-yl)-2-oxoethyl)-1H-indol-6-ylphosphonic acid], the pIC50 was > 6.00. As for `CCOP(=O)(OCC)c1ccc2c(c1)c(C(C)=O)cn2CC(=O)N1C[C@H](F)C[C@H]1C(=O)NCc1cccc(Cl)c1F` [Compound 8, diethyl 3-acetyl-1-(2-((2S,4R)-2-(3-chloro-2-fluorobenzylcarbamoyl)-4-fluoropyrrolidin-1-yl)-2-oxoethyl)-1H-indol-5-ylphosphonate], the figure is > 6.00; as for `CCOP(=O)(O)c1ccc2c(c1)c(C(C)=O)cn2CC(=O)N1C[C@H](F)C[C@H]1C(=O)NCc1cccc(Cl)c1F` [Compound 9, ethyl hydrogen 3-acetyl-1-(2-((2S,4R)-2-(3-chloro-2-fluorobenzylcarbamoyl)-4-fluoropyrrolidin-1-yl)-2-oxoethyl)-1H-indol-5-ylphosphonate], < 5.00. As to `CC(=O)c1cn(CC(=O)N2C[C@H](F)C[C@H]2C(=O)NCc2cccc(Cl)c2F)c2ccc(P(=O)(O)O)cc12` [Compound 10, 3-acetyl-1-(2-((2S,4R)-2-(3-chloro-2-fluorobenzylcarbamoyl)-4-fluoropyrrolidin-1-yl)-2-oxoethyl)-1H-indol-5-ylphosphonic acid], the negative-log IC50 (pIC50) is > 6.00. The same measure for `CCOC(=O)c1nn(CC(=O)N2C[C@H](F)C[C@H]2C(=O)NCc2cccc(Cl)c2F)c2cc(P(=O)(OCC)OCC)ccc12` [Compound 11, ethyl 1-(2-((2S,4R)-2-(3-chloro-2-fluorobenzylcarbamoyl)-4-fluoropyrrolidin-1-yl)-2-oxoethyl)-6-(diethoxyphosphoryl)-1H-indazole-3-carboxylate]: < 5.00; for `CCOP(=O)(OCC)c1ccc2c(C(=O)O)nn(CC(=O)N3C[C@H](F)C[C@H]3C(=O)NCc3cccc(Cl)c3F)c2c1` [Compound 12, 1-(2-((2S,4R)-2-(3-chloro-2-fluorobenzylcarbamoyl)-4-fluoropyrrolidin-1-yl)-2-oxoethyl)-6-(diethoxyphosphoryl)-1H-indazole-3-carboxylic acid]: < 5.00. As for `CCOP(=O)(OCC)c1ccc2c(C(=O)OC)cn(CC(=O)N3C[C@H](F)C[C@H]3C(=O)NCc3cccc(Cl)c3F)c2c1` [Compound 13, methyl 1-(2-((2S,4R)-2-(3-chloro-2-fluorobenzylcarbamoyl)-4-fluoropyrrolidin-1-yl)-2-oxoethyl)-6-(diethoxyphosphoryl)-1H-indole-3-carboxylate], the figure is > 6.00. The same measure for `COC(=O)c1cn(CC(=O)N2C[C@H](F)C[C@H]2C(=O)NCc2cccc(Cl)c2F)c2cc(P(=O)(O)O)ccc12` [Compound 14, 1-(2-((2S,4R)-2-(3-chloro-2-fluorobenzylcarbamoyl)-4-fluoropyrrolidin-1-yl)-2-oxoethyl)-3-(methoxycarbonyl)-1H-indol-6-ylphosphonic acid]: > 6.00. Consider `CCOP(=O)(OCC)c1ccc2c(C(N)=O)cn(CC(=O)N3C[C@H](F)C[C@H]3C(=O)NCc3cccc(Cl)c3F)c2c1` [Compound 15, diethyl 3-carbamoyl-1-(2-((2S,4R)-2-(3-chloro-2-fluorobenzylcarbamoyl)-4-fluoropyrrolidin-1-yl)-2-oxoethyl)-1H-indol-6-ylphosphonate], for which the pIC50 is > 6.00.

Take `NC(=O)c1cn(CC(=O)N2C[C@H](F)C[C@H]2C(=O)NCc2cccc(Cl)c2F)c2cc(P(=O)(O)O)ccc12` [Compound 16, 3-carbamoyl-1-(2-((2S,4R)-2-(3-chloro-2-fluorobenzylcarbamoyl)-4-fluoropyrrolidin-1-yl)-2-oxoethyl)-1H-indol-6-ylphosphonic acid]: the pIC50 was > 6.00. The same measure for `CCOP(=O)(OCC)c1ccc2c(C(N)=O)nn(CC(=O)N3C[C@H](F)C[C@H]3C(=O)NCc3cccc(Cl)c3F)c2c1` [Compound 17, diethyl 3-carbamoyl-1-(2-((2S,4R)-2-(3-chloro-2-fluorobenzylcarbamoyl)-4-fluoropyrrolidin-1-yl)-2-oxoethyl)-1H-indazol-6-ylphosphonate]: > 6.00; for `NC(=O)c1nn(CC(=O)N2C[C@H](F)C[C@H]2C(=O)NCc2cccc(Cl)c2F)c2cc(P(=O)(O)O)ccc12` [Compound 18, 3-carbamoyl-1-(2-((2S,4R)-2-(3-chloro-2-fluorobenzylcarbamoyl)-4-fluoropyrrolidin-1-yl)-2-oxoethyl)-1H-indazol-6-ylphosphonic acid]: > 6.00. In the case of `CC(=O)c1cn(CC(=O)N2C[C@H](F)C[C@H]2C(=O)NCc2cccc(Cl)c2F)c2cc(P(=O)(OCC(F)(F)F)OCC(F)(F)F)ccc12` [Compound 19, bis(2,2,2-trifluoroethyl) 3-acetyl-1-(2-((2S,4R)-2-(3-chloro-2-fluorobenzylcarbamoyl)-4-fluoropyrrolidin-1-yl)-2-oxoethyl)-1H-indol-6-ylphosphonate], the pIC50 is > 6.00. The same measure for `CCCCOP(=O)(OCCCC)c1ccc2c(C(C)=O)cn(CC(=O)N3C[C@H](F)C[C@H]3C(=O)NCc3cccc(Cl)c3F)c2c1` [Compound 20, dibutyl 3-acetyl-1-(2-((2S,4R)-2-(3-chloro-2-fluorobenzylcarbamoyl)-4-fluoropyrrolidin-1-yl)-2-oxoethyl)-1H-indol-6-ylphosphonate]: > 6.00. Regarding `CCCCOP(=O)(O)c1ccc2c(C(C)=O)cn(CC(=O)N3C[C@H](F)C[C@H]3C(=O)NCc3cccc(Cl)c3F)c2c1` [Compound 21, butyl hydrogen 3-acetyl-1-(2-((2S,4R)-2-(3-chloro-2-fluorobenzylcarbamoyl)-4-fluoropyrrolidin-1-yl)-2-oxoethyl)-1H-indol-6-ylphosphonate], the pIC50 is > 6.00. In the case of `CC(=O)c1cn(CC(=O)N2C[C@H](F)C[C@H]2C(=O)NCc2cccc(Cl)c2F)c2cc(P(=O)(O)OCOC(=O)OC(C)C)ccc12` [Compound 22, ((3-acetyl-1-(2-((2S,4R)-2-(3-chloro-2-fluorobenzylcarbamoyl)-4-fluoropyrrolidin-1-yl)-2-oxoethyl)-1H-indol-6-yl)(hydroxy)phosphoryloxy) methyl isopropyl carbonate], the negative-log IC50 (pIC50) was > 6.00. As for `CCOP(=O)(c1ccccc1)c1ccc2c(C(C)=O)cn(CC(=O)N3C[C@H](F)C[C@H]3C(=O)NCc3cccc(Cl)c3F)c2c1` (stereo partly drawn) [Compound 23, ethyl 3-acetyl-1-(2-((2S,4R)-2-(3-chloro-2-fluorobenzylcarbamoyl)-4-fluoropyrrolidin-1-yl)-2-oxoethyl)-1H-indol-6-yl(phenyl)phosphinate], the figure is > 6.00. As for `CCOP(=O)(CC)c1ccc2c(C(C)=O)cn(CC(=O)N3C[C@H](F)C[C@H]3C(=O)NCc3cccc(Cl)c3F)c2c1` (stereo partly drawn) [Compound 24, ethyl 3-acetyl-1-(2-((2S,4R)-2-(3-chloro-2-fluorobenzylcarbamoyl)-4-fluoropyrrolidin-1-yl)-2-oxoethyl)-1H-indol-6-yl(ethyl)phosphinate], the figure is > 6.00. As to `CC(=O)c1cn(CC(=O)N2C[C@H](F)C[C@H]2C(=O)NCc2cccc(Cl)c2F)c2cc(P(=O)(O)c3ccccc3)ccc12` [Compound 25, 3-acetyl-1-(2-((2S,4R)-2-(3-chloro-2-fluorobenzylcarbamoyl)-4-fluoropyrrolidin-1-yl)-2-oxoethyl)-1H-indol-6-yl(phenyl)phosphinic acid], the pIC50 is > 6.00. The same measure for `CC(=O)c1cn(CC(=O)N2C[C@H](F)C[C@H]2C(=O)NCc2cccc(Cl)c2F)c2cc(P(=O)(OCOC(=O)C(C)(C)C)OCOC(=O)C(C)(C)C)ccc12` [Compound 26, ((3-acetyl-1-(2-((2S,4R)-2-(3-chloro-2-fluorobenzylcarbamoyl)-4-fluoropyrrolidin-1-yl)-2-oxoethyl)-1H-indol-6-yl)phosphoryl)bis(oxy)bis (methylene) bis(2,2-dimethylpropanoate)]: > 6.00; for `CCP(=O)(O)c1ccc2c(C(C)=O)cn(CC(=O)N3C[C@H](F)C[C@H]3C(=O)NCc3cccc(Cl)c3F)c2c1` [Compound 27, 3-acetyl-1-(2-((2S,4R)-2-(3-chloro-2-fluorobenzylcarbamoyl)-4-fluoropyrrolidin-1-yl)-2-oxoethyl)-1H-indol-6-yl(ethyl)phosphinic acid]: > 6.00.
